Laboratory results published in patent publication US20060052458A1, “Preventive or remedy for intrauterine late embryonic development or pregnancy toxemia” (KISSEI PHARMACEUTICAL CO., LTD., priority 2003, published 2006).
Marks after values point to notes of the source that are not given here.

Key:
[1] = test system: rat L-NAME-induced gestational toxicosis model; test: Confirmation of effects on gestational toxicosis (Test Example 2); format: in vivo
Source text: A gestational toxicosis model was created as follows. A 17th -gestation day rat was anesthetized with ether. Then, the poll was incised approximately 10 mm to transplant in control group an osmotic pressure pump filled with L-NAME, and in the normal group, in the similar manner, an osmotic pressure pump filled with physiological saline in place of L-NAME. To the test group, in addition to the above pump, an osmotic pressure pump filled with bis(2-{[(2S)-2-({(2R)-2-hydroxy-2-[4-hydroxy-3-(2-hydroxyethyl)phenyl]ethyl}amino)-1,2,3,4-tetrahydronaphthalene-7-yl]oxy}-N,N-dimethylacetamide) monosulfate (the compound represented by the above formula (Ia)) was implanted. On the 20th gestation day, the mother animal was anesthetized with ether, and the fetus was extirpated. Severity of static gangrene at the tip of fetal extremities was examined, and the amount of maternal urinary albumin and plasma triglyceride level were measured.
While bis(2-{[(2S)-2-({(2R)-2-hydroxy-2-[4-hydroxy-3-(2-hydroxyethyl)phenyl]ethyl)amino)-1,2,3,4-tetrahydronaphthalene-7-yl]oxy)-N,N-dimethylacetamide) monosulfate was dissolved in physiological saline and an osmotic pressure pump with the dose of 200 μg/day was inserted, L-NAME was dissolved in physiological saline to make 200 mg/mL for filling and an osmotic pressure pump with the dose of 48 mg/day was inserted.

[2] = test system: rat intrauterine growth retardation model induced by L-NAME; test: Confirmation of effects on IUGR (Test Example 1); format: in vivo
Source text: IUGR model was created as follows in accordance with the method by Yallampalli et al. (Am J Obstet Gynecol, vol. 169: 1316-1320, 1993). A 17th-gestation day rat was anesthetized with ether. Then, the poll was incised approximately 10 mm to transplant in control group an osmotic pressure pump filled with L-NAME, and in the normal group, in the similar manner, an osmotic pressure pump filled with physiological saline in place of L-NAME. To the test group, in addition to the above pump, an osmotic pressure pump filled with bis(2-{[(2S)-2-({(2R)-2-hydroxy-2-[4-hydroxy-3-(2-hydroxyethyl)phenyl]ethyl}amino)-1,2,3,4-tetrahydronaphthalene-7-yl]oxy)-N,N-dimethylacetamide) monosulfate (the compound of the above formula (Ia)) was implanted. On the 20th gestation day, the mother animal was anesthetized with ether, and the fetus was extirpated and weighed. Maternal blood pressure was measured before ether anesthesia on the 17th and 20th gestation days. In statistical analysis, comparisons of control group with normal group or test group were conducted in F-test for variance. When there was equal variance, unpaired t-tests were performed. When there was unequal variance, Welch's test was performed.
Bis(2-{[(2S)-2-({(2R)-2-hydroxy-2-[4-hydroxy-3-(2-hydroxyethyl)phenyl]ethyl}amino)-1,2,3,4-tetrahydronaphthalene-7-yl]oxy}-N,N-dimethylacetamide) sulfate was dissolved in physiological saline and an osmotic pressure pump with the dose of 50 μg/day was inserted, while L-NAME was dissolved in physiological saline to make 50 mg/mL for filling and an osmotic pressure pump with the dose of 12 mg/day was inserted.

[3] = L-NAME 48 mg/day + compound 200 μg/day by osmotic pump from gestation day 17, examined on day 20
[4] = L-NAME 48 mg/day + compound 200 μg/day by osmotic pump, gestation day 20

SMILES: CN(C)C(=O)COc1ccc2c(c1)C[C@@H](NC[C@H](O)c1ccc(O)c(CCO)c1)CC2 [formula (Ia), bis(2-{[(2S)-2-({(2R)-2-hydroxy-2-[4-hydroxy-3-(2-hydroxyethyl)phenyl]ethyl}amino)-1,2,3,4-tetrahydronaphthalene-7-yl]oxy}-N,N-dimethylacetamide) monosulfate]
- Static gangrene in the tip of extremities (incidence %) [1, 3]: 8%
- The number of static gangrene in the tip of extremities/The number of fetuses [1, 3]: 16/203
- Maternal plasma triglyceride level [1, 4]: 143 µg/mL
- Maternal urinary albumin level [1, 4]: 222.1# μg/mL
- Change in maternal blood pressure after administration (effect on maternal heart) ([2]; 50 μg/day by osmotic pump, gestation days 17 to 20): no change in maternal blood pressure
- Mean blood pressure of dam ([2]; Day 20 of gestation, L-NAME 12 mg/day + compound 50 μg/day by osmotic pump): 102.5 mmHg
- Fetal body weight ([2]; pregnant rat, L-NAME 12 mg/day + compound 50 μg/day by osmotic pump from gestation day 17, fetus weighed on day 20): 3550 mg
